Assay results reported in US20200078404A1, “COMBINATION OF A CELL THERAPY AND AN IMMUNOMODULATORY COMPOUND” (Juno Therapeutics, Inc., priority 2017, published 2020).

Columns and labels:
[1] = system: Raji lymphoma tumor cells; assay: Raji lymphoma xenograft model, anti-CD19 CAR-expressing cells with Compound 1; format: in vivo, mouse; details: Compound 1 0.3 mg/kg i.p. daily, Concurrent and Delayed groups, combined with anti-CD19 CAR-expressing cells, vs CAR-expressing cells alone
Description: The anti-tumor efficacy of CAR-expressing T cells in combination with Compound 1 was assessed by monitoring tumors in a tumor xenograft model. […] T cell compositions were generated from three different donors.
NOD.Cg.Prkdc^scidIL2rg^tm1Wjl/SzJ (NSG) mice were injected intravenously (i.v.) with 0.5×10^6 Raji lymphoma tumor cells (an immortalized human B lymphocyte tumor cell line that expresses CD19) that were transfected with firefly luciferase (Raji-ffluc). Tumor engraftment was allowed to occur for 6 days and verified using bioluminescence imaging. On Day 7, mice either received no treatment, or a single intravenous (i.v.) injection of anti-CD19 CAR-expressing cells at a low dose (0.5×10^6 cells) or a high dose (1.0×10^6 cells). […] Tumor burden was assessed by bioluminescence every 10 days. For bioluminescence imaging, mice received intraperitoneal (i.p.) injections of luciferin substrate (CaliperLife Sciences, Hopkinton, Mass.) resuspended in PBS (15 μg/g body weight). The average radiance (p/s/cm^2/sr) was determined.

[2] = system: anti-CD19 CAR-expressing T cells; assay: T cell surface markers of anti-CD19 CAR-expressing T cells incubated with K562.CD19; format: cell-based, human
[3] = system: anti-CD19 CAR-expressing T cells; assay: Serial stimulation with K562.CD19: surface markers; format: cell-based, human
Description: (§1) Every 3-4 days (start of each new round), the cells were counted.
Expression of select surface markers was assessed on cells at day 4 (i.e., 4 days after the first stimulation) and day 28 (i.e., 4 days after the seventh stimulation). Specifically, harvested cells were analyzed by flow cytometry for CD3, CD4, CD8 and the surrogate marker for CAR expression, and also for the following surface markers: CD69, CD107a, PD-1, CD25, CD62L, CCR7, CD45RO, CD27, and LAG3.

[4] = system: anti-CD19 CAR-expressing T cells; assay: Surface markers after anti-idiotypic antibody stimulation; format: cell-based, human
Description: CAR-expressing T cells were stained for CD3, CD4, CD8 and the surrogate marker for CAR expression, and also for the following markers: CD25, PD-1, and CD69.

[5] = system: K562.CD19 target cells; assay: Serial stimulation with K562.CD19: cytolytic function at day 24; format: cell-based, human; details: day 24 after serial stimulation
Description: as §1

[6] = system: anti-CD19 CAR-expressing T cells; assay: Cytokine production after anti-idiotypic antibody stimulation; details: anti-idiotypic antibody 0.3-30 μg/ml, 24 hours; Compound 1 100, 1000 nM; lenalidomide 500, 5000 nM
[7] = system: Ikaros; assay: Intracellular Ikaros in anti-CD19 CAR-expressing T cells (flow cytometry); format: cell-based, human
Description: Cells of the enriched CD4+ and CD8+ compositions were separately activated with anti-CD3/anti-CD28 beads and subjected to lentiviral transduction with a vector encoding an anti-CD19 CAR. […] Transduced populations then were separately incubated in the presence of stimulating reagents for cell expansion.

[8] = system: K562.CD19 target cells; assay: Cytolytic function of anti-CD19 CAR-expressing T cells against K562.CD19 target cells; format: cell-based, human
Description: K562.CD19 target cells were transduced with NucLight Red to permit their tracking by microscopy. Cytolytic activity was assessed by measuring the loss of viable target cells over a period of five days, as determined by red fluorescent signal (using the IncuCyte® Live Cell Analysis System, Essen Bioscience).

[9] = system: anti-CD19 CAR-expressing T cells; assay: Cytokine production of anti-CD19 CAR-expressing T cells incubated with K562.CD19 target cells; format: cell-based, human
[10] = system: anti-CD19 CAR-expressing T cells; assay: Serial stimulation with K562.CD19: expansion (cell doublings); format: cell-based, human
Description: as §1

Question: Which “tumor burden and survival” value [1] does the source give for `Cc1nc2cccc(N)c2c(=O)n1C1CCC(=O)NC1=O` (stereo not drawn) [Compound 1] here?
Answer: reduce tumor burden and improve survival data

Question: And the “expression of CD27” value ([2]; all donors and E:T ratios)?
Answer: downregulated in a concentration-dependent manner

Question: What about the “expression of CD45RO” value ([2]; all donors and E:T ratios) of the same molecule?
Answer: increased

Question: What about the “expression of CD69 and LAG3” value ([2]; cells derived from donor 3) of the same molecule?
Answer: increased in a concentration-dependent manner

Question: And the “expression of CD28” value ([3]; CD4+ and CD8+ CAR-expressing T cells, day 28, three donors)?
Answer: decreased in a dose-dependent manner

Question: And the PD-1 expression ([3]; both E:T ratios, day 4 and day 28)?
Answer: downregulated to some degree in all donors

Question: What about the “CD25 and LAG3 expression” value ([3]; day 4) of the same molecule?
Answer: upregulated across all three donors

Question: And the CCR7 expression ([3]; day 28)?
Answer: generally decreased at day 28

Question: What about the “surface markers CD25 and CD69” value ([4]; CD4+ and CD8+ CAR-expressing T cells, day 4, some donors) of the same molecule?
Answer: increase in surface markers CD25 and CD69

Question: What about the “expression of PD-1” value ([4]; day 4, unchanged or decreased in the other donors) of the same molecule?
Answer: increased in the presence of Compound 1 or lenalidomide in cells generated from at least one donor

Question: What about the “cytolytic activity of anti-CD19 CAR-expressing T cells” value [5] of the same molecule?
Answer: increase the cytolytic activity

Question: And the “IFN-γ, IL-2 and TNF-α production” value [6]?
Answer: increased relative to the vehicle control

Question: And the “reduction in Ikaros expression compared to lenalidomide” value [7]?
Answer: greater reduction in Ikaros expression

Question: What about the “intracellular Ikaros expression” value ([7]; CD4+ and CD8+ anti-CD19 CAR-expressing T cells) of the same molecule?
Answer: concentration-dependent decrease in intracellular Ikaros expression

Question: And the “cytolytic activity of anti-CD19 CAR-expressing cells” value ([8]; 2.5:1 E:T ratio, some donors)?
Answer: slightly reduced cytolytic activity

Question: What about the “cytolytic activity of anti-CD19 CAR-expressing T cells” value ([8]; 5:1 E:T ratio, high concentrations, Donor 2, no effects with Donors 1 and 3) of the same molecule?
Answer: slight but consistent increase in cytolytic activity

Question: And the “cytolytic function of anti-CD19 CAR-expressing T cells” value ([8]; five days, three donors)?
Answer: limited effect on cytolytic function

Question: What about the “cytokine production compared to lenalidomide at equivalent concentrations” value [9] of the same molecule?
Answer: greater cytokine production across multiple conditions

Question: And the “cytokine production (IFN-γ, IL-2, TNF-α)” value ([9]; concentration-dependent, E:T 5:1 and 2.5:1, 24 hours, vs vehicle)?
Answer: increased

Question: And the “cell counts of anti-CD19 CAR-expressing T cells” value ([10]; 10 nM and 100 nM Compound 1, after 24 days)?
Answer: higher than the untreated controls for two out of three donors

Question: And the “number of doublings of CAR+ cells” value ([10]; 500 nM Compound 1, rounds after 3-4 rounds of stimulation)?
Answer: lower than the untreated control groups
